# Data: US6696093B2, “Aldehyde donors for stabilizing peroxides” (Lonza Inc., priority 2000, dated 2004)
# How the values were obtained:
# [1] = H2O2 stabilization in papermaking process water (Example 1); details: for H2O2 residual: 45° C.
# Protocol: Process waters from a papermaking facility which uses recycled fibers were collected during a bleaching stage and allowed to stand for 2 hours to achieve total depletion of the hydrogen peroxide in the process waters.
# Into five separate Pyrex beakers were placed 400 ml of the process water. One was retained as a control. 150 and 300 ppm of an aqueous solution containing 40% by weight of 1,3-bis(hydroxymethyl)-5,5-dimethylhydantoin (DMDMH) (Dantogard®) were added to two beakers for a total concentration of 60 ppm and 120 ppm of DMDMH, respectively. On an equivalent aldehyde basis, this corresponds to 0.65 mEq/l and 1.30 mEq/l, respectively. 150 and 300 ppm of an aqueous solution containing […] of glutaraldehyde were added to the remaining two beakers for a total concentration of 83 ppm and 166 ppm of glutaraldehyde, respectively. On an equivalent aldehyde basis, this corresponds to 1.66 mEq/l and 3.32 mEq/l, respectively. The samples were placed in a controlled water bath at 45° C. and stirred with a magnetic stirrer set on slow agitation.
# To all the test samples, a sufficient volume of a 1% (by weight) hydrogen peroxide (H2O2) aqueous solution was added to achieve a concentration of 20-25 ppm of hydrogen peroxide in the samples. At regular time intervals, over a 45 minute period, aliquots were removed and analyzed for peroxide residual (i.e. the concentration of hydrogen peroxide) using a thiosulfate titration kit (HACH Test Kit, Model HYP-1, available from Hach Company of Loveland, Colo.). The results, shown in Table 1, correlate to the amount of peroxide present at the specific time interval, expressed as ppm of hydrogen peroxide.
# catalase = target: T1, catalase (Aspergillus niger, UniProt P55303); test: Catalase promoted hydrogen peroxide decomposition in phosphate buffer pH 7.0 (Example 6); type: biochemical, A. niger; details: 526 ppm product
# T1 construct: purchased Sigma Aldrich C-3515; host or cells: A. niger derived
# Protocol: Hydrogen peroxide solutions containing 470 ppm active peroxide in sterile Butterfield's phosphate buffer (pH=7.0) were treated with 1.2 units of catalase (A. niger available from Sigma Aldrich of St. Louis, Mo. (C-3515)) alone or with 263 or 526 ppm of Dantogard® 2000, available from Lonza Inc. of Fair Lawn, N.J., or 526 ppm of an aqueous 49% glutaraldehyde solution. Dantogard® 2000 is a 65% aqueous mixture of DMDMH, MMDMH and DMH having a minimal free formaldehyde concentration. The peroxide decomposition rate was monitored during the decrease in peroxide concentration from 390 to 350 ppm by ultraviolet absorbance at 240 nm. The temperature was 23° C.
# T1 sequence (P55303 whole entry): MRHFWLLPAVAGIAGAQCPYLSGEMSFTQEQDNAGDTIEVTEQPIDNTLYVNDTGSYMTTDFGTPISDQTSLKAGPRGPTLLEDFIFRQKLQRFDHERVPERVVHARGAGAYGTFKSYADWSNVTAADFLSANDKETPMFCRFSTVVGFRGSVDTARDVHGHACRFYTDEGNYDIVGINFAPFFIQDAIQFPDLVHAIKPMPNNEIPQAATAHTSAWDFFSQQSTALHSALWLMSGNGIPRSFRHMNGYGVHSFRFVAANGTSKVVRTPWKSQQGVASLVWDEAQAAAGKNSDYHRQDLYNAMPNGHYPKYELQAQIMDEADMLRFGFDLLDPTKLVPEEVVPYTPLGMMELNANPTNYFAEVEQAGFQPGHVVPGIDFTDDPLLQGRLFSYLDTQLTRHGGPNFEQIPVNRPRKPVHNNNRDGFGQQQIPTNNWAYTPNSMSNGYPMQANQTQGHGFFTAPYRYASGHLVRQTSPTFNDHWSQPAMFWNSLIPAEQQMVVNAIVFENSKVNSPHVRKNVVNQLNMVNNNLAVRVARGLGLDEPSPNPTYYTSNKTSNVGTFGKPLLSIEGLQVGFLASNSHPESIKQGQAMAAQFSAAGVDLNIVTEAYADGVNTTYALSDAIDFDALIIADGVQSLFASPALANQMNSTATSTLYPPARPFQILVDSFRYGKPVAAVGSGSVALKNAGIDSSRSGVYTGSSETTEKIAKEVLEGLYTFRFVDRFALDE
compound,measurement,setting,value
"CC1(C)C(=O)N(CO)C(=O)N1CO [DMDMH, 1,3-bis(hydroxymethyl)-5,5-dimethylhydantoin]",H2O2 residual,"[1]; 60 ppm DMDMH, 0 min",25 ppm H2O2
same,H2O2 residual,"[1]; 60 ppm DMDMH, 10 min",24 ppm H2O2
same,H2O2 residual,"[1]; 60 ppm DMDMH, 15 min",23 ppm H2O2
same,H2O2 residual,"[1]; 60 ppm DMDMH, 20 min",22 ppm H2O2
same,H2O2 residual,"[1]; 60 ppm DMDMH, 30 min",18 ppm H2O2
same,H2O2 residual,"[1]; 60 ppm DMDMH, 40 min",16 ppm H2O2
same,H2O2 residual,"[1]; 60 ppm DMDMH, 45 min",15 ppm H2O2
same,H2O2 residual,"[1]; 120 ppm DMDMH, 0 min",26 ppm H2O2
same,H2O2 residual,"[1]; 120 ppm DMDMH, 10 min",24 ppm H2O2
same,H2O2 residual,"[1]; 120 ppm DMDMH, 15 min",23 ppm H2O2
same,H2O2 residual,"[1]; 120 ppm DMDMH, 20 min",20 ppm H2O2
same,H2O2 residual,"[1]; 120 ppm DMDMH, 30 min",18 ppm H2O2
same,H2O2 residual,"[1]; 120 ppm DMDMH, 40 min",17 ppm H2O2
same,H2O2 residual,"[1]; 120 ppm DMDMH, 45 min",16 ppm H2O2
same,peroxide stabilization compared to glutaraldehyde,"[1]; Table 1 comparison, ppm product basis",superior peroxide stabilization compared to glutaraldehyde
"O=CCCCC=O [Glutaraldehyde, glutaraldehyde]",H2O2 residual,"[1]; 83 ppm glutaraldehyde, 0 min",25 ppm H2O2
same,H2O2 residual,"[1]; 83 ppm glutaraldehyde, 10 min",24 ppm H2O2
same,H2O2 residual,"[1]; 83 ppm glutaraldehyde, 15 min",22 ppm H2O2
same,H2O2 residual,"[1]; 83 ppm glutaraldehyde, 20 min",20 ppm H2O2
same,H2O2 residual,"[1]; 83 ppm glutaraldehyde, 30 min",16 ppm H2O2
same,H2O2 residual,"[1]; 83 ppm glutaraldehyde, 40 min",14 ppm H2O2
same,H2O2 residual,"[1]; 83 ppm glutaraldehyde, 45 min",12 ppm H2O2
same,H2O2 residual,"[1]; 166 ppm glutaraldehyde, 0 min",26 ppm H2O2
same,H2O2 residual,"[1]; 166 ppm glutaraldehyde, 10 min",24 ppm H2O2
same,H2O2 residual,"[1]; 166 ppm glutaraldehyde, 15 min",21 ppm H2O2
same,H2O2 residual,"[1]; 166 ppm glutaraldehyde, 20 min",19 ppm H2O2
same,H2O2 residual,"[1]; 166 ppm glutaraldehyde, 30 min",17 ppm H2O2
same,H2O2 residual,"[1]; 166 ppm glutaraldehyde, 40 min",15 ppm H2O2
same,H2O2 residual,"[1]; 166 ppm glutaraldehyde, 45 min",13 ppm H2O2
same,Peroxide Decomposition Rate,"catalase; 1.2 units catalase, pH 7.0, 23° C., peroxide 390 to 350 ppm",0.230 ppm/sec
same,Normalized Decomposition Rate,catalase; control = 1.00,1.0
